CC[C@H]1OC(=O)[C@H](C)[C@@H](O[C@H]2C[C@@](C)(OC)[C@@H](O)[C@H](C)O2)[C@H](C)[C@@H](O[C@@H]2O[C@H](C)C[C@H](N(C)C)[C@H]2O)[C@](C)(O)C[C@@H](C)C(=O)[C@H](C)[C@@H](O)[C@]1(C)O.N#CS.O.O
solubility (mole fraction)
Conditions	288.15 K	293.15 K	298.15 K	303.15 K	308.15 K	313.15 K	318.15 K
in ethanol	0.00426	0.00475	0.00525	0.00586	0.00679	0.00767	0.00856
in isopropanol	0.00104	0.00121	0.00136	0.00157	0.00175	0.002	0.00227
in methanol	0.0119	0.0128	0.0144	0.0158	0.0173	0.0189	0.0203
in n-propanol	0.00409	0.00437	0.00488	0.00567	0.00643	0.00725	0.00841
